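Results reflect a 48-hour exposure of cells in 96-well plates to compound at five concentrations. At the GI50, growth is halved. TGI: concentration producing complete growth inhibition.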
What was measured:
Assay in all cases: inhibition of tumour cell growth, NCI panel, 48 h
OVCAR-8 ovarian = system: OVCAR-8 ovarian
HS 578T breast = system: HS 578T breast
NCI-H23 lung = system: NCI-H23 lung
CAKI-1 renal = system: CAKI-1 renal
HCT-15 colon = system: HCT-15 colon
SNB-75 CNS = system: SNB-75 CNS
BT-549 breast = system: BT-549 breast
786-0 renal = system: 786-0 renal

Row | Compound | GI50 (OVCAR-8 ovarian) | TGI (OVCAR-8 ovarian) | GI50 (HS 578T breast) | TGI (HS 578T breast) | GI50 (NCI-H23 lung) | TGI (NCI-H23 lung) | GI50 (CAKI-1 renal) | TGI (CAKI-1 renal) | GI50 (HCT-15 colon) | TGI (HCT-15 colon) | GI50 (SNB-75 CNS) | TGI (SNB-75 CNS) | GI50 (BT-549 breast) | TGI (BT-549 breast) | GI50 (786-0 renal) | TGI (786-0 renal)
1 | CC[CH2][Sn]([Cl])([Cl])[CH2]CC | 14.7 µM | 30.1 µM | 6.13 µM | 28.4 µM | 9.13 µM | 22 µM | 6.69 µM | 21 µM | 11.3 µM | 25.5 µM | 6.24 µM | 20.1 µM | 7.87 µM | 20.5 µM | 10.8 µM | 23 µM
2 | COc1ccc(C2=C(c3cc(OC)c(OC)c(OC)c3)C(=O)CC2)cc1 | 0.392 µM | > 100 µM | 0.0827 µM | – | 0.313 µM | > 100 µM | 0.76 µM | > 100 µM | 0.147 µM | > 100 µM | 0.224 µM | > 100 µM | 0.919 µM | > 22.7 µM | 0.425 µM | > 100 µM
3 | CC1=C([Se]CC(OC(=O)[C@@H](CO)NC(=O)OC(C)(C)C)C(=O)NC(C)(C)C)C(=O)c2ccccc2C1=O (stereo partly drawn) | – | – | – | – | 1.49 µM | 3.2 µM | 1.76 µM | 3.39 µM | 1.99 µM | 3.97 µM | 1.3 µM | 2.6 µM | 1.59 µM | 2.93 µM | 1.95 µM | 3.39 µM
4 | COc1cccc(C2NC(=S)NC(C)=C2C(=O)Nc2ccc(F)c(Cl)c2)c1 (stereo not drawn) | 34.6 µM | > 50 µM | 13.5 µM | 40.2 µM | 18.5 µM | 47.7 µM | 48.9 µM | > 50 µM | 23.7 µM | > 50 µM | – | – | 15.2 µM | 46.1 µM | > 50 µM | > 50 µM
5 | COc1ccc(/C=C/c2cc(N3CCOCC3)c3cc(F)c(F)cc3n2)cc1OC | 0.55 µM | 3.23 µM | 2.37 µM | 28.8 µM | 1.12 µM | 6.11 µM | 0.394 µM | 3.24 µM | 0.392 µM | 12 µM | 1.06 µM | 6.63 µM | 0.777 µM | 5.46 µM | 0.6 µM | 3.8 µM
6 | CC(=O)OC[C@]12CC[C@@H]([C@@H](C)C(N)=O)[C@@H]1[C@H]1CC[C@@H]3[C@@]4(C)CC[C@H](OC(C)=O)C(C)(C)[C@@H]4CC[C@@]3(C)[C@]1(C)CC2 | 5.44 µM | 25.2 µM | 12.4 µM | 38.6 µM | 9.42 µM | 33.6 µM | 3.24 µM | 15.4 µM | 4.04 µM | 15.3 µM | 5.59 µM | 44.6 µM | 8.17 µM | 22.6 µM | 10.9 µM | 26.3 µM
7 | CNC(C)C(=O)N[C@H](C(=O)N1CCC[C@@H]1CN(CCc1ccccc1)C(=O)C(F)(F)F)[C@H](C)OCC#CC#CCO[C@H](C)[C@H](NC(=O)[C@H](C)NC)C(=O)N1CCC[C@H]1CN(CCc1ccccc1)C(=O)C(F)(F)F (stereo partly drawn) | 0.67 µM | 2.19 µM | 1.55 µM | 3.65 µM | 1.16 µM | 2.68 µM | 2.39 µM | 5.51 µM | 1.76 µM | 3.75 µM | < 0.037 µM | 0.764 µM | < 0.01 µM | 1.69 µM | 1.65 µM | 3.25 µM
8 | CCCCN(CCCC)CCCN=c1nc2c(c(N)n1-c1ccccc1)c(=S)n(-c1ccccc1)c(=S)n2-c1ccccc1 | – | – | 0.78 µM | 3.16 µM | 1.88 µM | 3.97 µM | 0.384 µM | 1.49 µM | 0.309 µM | 1.14 µM | 0.719 µM | 2.11 µM | 1.67 µM | 3.38 µM | 0.501 µM | 1.08 µM
9 | C#CCNC(=O)CC[C@]1(C)[C@H]2CC[C@@H]3[C@@H]([C@@](C)(O)CCC=C(C)C)CC[C@@]3(C)[C@]2(C)CC[C@H]1C(=C)C | 31.3 µM | > 100 µM | 50.2 µM | > 100 µM | 27.7 µM | > 100 µM | 4.25 µM | 17.7 µM | 20.8 µM | 59.3 µM | > 100 µM | > 100 µM | 29 µM | > 100 µM | 12.2 µM | 30 µM
10 | CN(C)CCN=Cc1c2ccccc2c(=O)n2c1oc1ccccc12 | 5.89 µM | 21.5 µM | – | – | 10.5 µM | 23 µM | 3.62 µM | 15.2 µM | 5.37 µM | 22.1 µM | 7.55 µM | 22.2 µM | 7.61 µM | 21.1 µM | 11.6 µM | 25.3 µM
11 | OC(COc1cccc2ccccc12)CN1CCN(c2ccccc2)CC1 (stereo not drawn) | 17.3 µM | 32.1 µM | 15.8 µM | 47.3 µM | 15.9 µM | 31.9 µM | 12.6 µM | 27.2 µM | 18.8 µM | 35.7 µM | 13.7 µM | 27.2 µM | 17.9 µM | 32.2 µM | 17.4 µM | 32.2 µM
12 | N#Cc1cccc(NC(=O)c2oc3ccccc3c2-c2cnn(-c3ccccc3)c2)c1 | > 500 µM | > 500 µM | 171 µM | > 500 µM | > 500 µM | > 500 µM | > 500 µM | > 500 µM | > 500 µM | > 500 µM | 82 µM | 493 µM | 167 µM | > 500 µM | 221 µM | > 500 µM
13 | COc1ccc(/C=C\c2cc(OC)c(OC)c(OC)c2)cc1OC(=O)c1cccc(Cn2cc(CCOC(=O)c3cccc(Cn4nnc5c4C(=O)c4ccccc4C5=O)c3)nn2)c1 | < 0.01 µM | > 44.8 µM | < 0.01 µM | 21.4 µM | < 0.01 µM | 18.3 µM | 0.0459 µM | 20.1 µM | < 0.01 µM | > 100 µM | < 0.01 µM | 22.1 µM | < 0.01 µM | 1.35 µM | 0.101 µM | 17.5 µM
14 | COc1ccc(-c2nn(-c3cccc(NC(=O)Nc4cc(C(F)(F)F)cc(C(F)(F)F)c4)c3)cc2-c2ccncc2)cc1Cl | 1.13 µM | 22.5 µM | 1.17 µM | 5.52 µM | 1.41 µM | 8.22 µM | 1.07 µM | 9.44 µM | 0.962 µM | 4.08 µM | 0.813 µM | 4.18 µM | 1.35 µM | 4.59 µM | 0.976 µM | 2.74 µM
